“Also recorded” adds a separate entry of the source.
What was measured:
[1] = test system: HT-p21-9 cells; test: Senescent morphology and beta-Gal staining of HT-p21-9 cells (IPTG-induced p21); assay type: cell-based, human; settings: for cell divisions / arrest in the presence of nutlin-3a alone: nutlin-3a (10 μM), low cell density
Protocol: (§1) FIG. 1. Nutlin-3a converted senescence into quiescence. a. […] Cells were stained for beta-Gal and photographed (original magnification ×400). Bar scale—50 μm. b. […] Then cells were cultured in fresh medium until colonies become visible. Dishes were stained with crystal violet and photographed on day 4 (control) or on day 9 (IPTG- and nutlin-3a-treated).c. […] Before wash. Live HT-p21-9 cells (expressing GFP for better visualization of live cells) were photographed (original magnification ×100) under blue light. 3 d wash. Three days after drug removal. 9 d wash. Nine days after drug removal, cells were stained with crystal violet and photographed. d. Nutlin-3a dose response. […] After 3 days, the plates were washed and cells were incubated for an additional 9 days in fresh medium, stained with crystal violet and photographed. e. Colonies per dish. […] After 3 days, the plates were washed and cells were incubated for an additional 9 days in fresh medium. Colonies were counted and results are shown as percent of control (IPTG alone). f. Cells per dish. As in panel e. Cells were trypsinized and counted. Results are shown as percent of control (IPTG alone).
FIG. 5. Senescent versus quiescent morphology. […] Live cells, visualized with GFP (×100). In control, cells underwent 3 divisions, forming micro-colony.
(§2) Cell lines and reagents. HT-p21-9 and HT-p21-a cells are derivatives of HT1080 human fibrosarcoma cells, where p21 expression can be turned on or off using isopropyl-thio-galactosidase (IPTG) (7, 16, 28, 29, 36). […] HT-p16 cells are derivatives of HT1080 cells in which p16 expression can be turned on or off using IPTG (16, 36). WI-38-Tert, WI-38 are fibroblasts immortalized by telomerase. HT-p21-GSE56 cells: p53 inhibiting peptide GSE56 (18) was introduced into HT1080 p21-9 cells via a retroviral vector LXSE (37). Cells were grown in high glucose DMEM with 10% FC2 serum. WI-38-tert cells were grown in low glucose DMEM with 10% FCS. Rapamycin was obtained from LC Laboratories (Woburn, Mass.). IPTG (final concentration of 50 μg/ml) and FC2 were obtained from Sigma-Aldrich (St. Louis, Mo.).
Beta-galactosidase staining Beta-gal staining was performed using Senescence-galactosidase staining kit (Cell Signaling Technology).

[2] = test system: HT-p21-9 cells; test: Colony formation / proliferative potential after drug removal, HT-p21-9 cells; assay type: cell-based, human
Protocol: as §1
FIG. 3. […] Immunoblot. […] Immunoblot was performed as described in the methods for Example 1 below. b. Immunoblot. […] Immunoblot was performed as described in Methods. c. […] After 3 days, cells were washed and incubated in fresh medium w/o drugs for an additional 7 days. Cells were counted and are shown as percent of IPTG alone. d. […] Cells were treated with either IPTG alone (black bars) or IPTG plus rapamycin (white bars) or plus nutlin-3a (grey bars). On days 2, 3, 4, and 5 cells were lysed and protein content per well was measured. […] Cells were labeled with [^35S]methionine/cysteine as described in Methods for Example 1.
FIG. 6. […] Nine days after drug removal. a. Cell number per dish. Cells per dish were counted. b. Cell number per a colony. Number of cells per colony was calculated. A number of cells per colony was 200-250 (approximately equals to 8 divisions) by day 9.
as §2
Colony formation assay. Plates were fixed and stained with 1.0% methylene blue or with crystal violet (13).

[3] = test system: mTOR pathway; test: Immunoblot for mTOR pathway (p-S6, p-4E-BP1, cyclin D1) in HT-p21 cells; assay type: cell-based, human
Protocol: FIG. 3. […] Immunoblot. […] Immunoblot. […] Immunoblot was performed as described in Methods. c. […] After 3 days, cells were washed and incubated in fresh medium w/o drugs for an additional 7 days. […] On days 2, 3, 4, and 5 cells were lysed and protein content per well was measured.
Cell lines and reagents. […] WI-38-Tert, WI-38 are fibroblasts immortalized by telomerase. […] Cells were grown in high glucose DMEM with 10% FC2 serum. WI-38-tert cells were grown in low glucose DMEM with 10% FCS. Rapamycin was obtained from LC Laboratories (Woburn, Mass.). IPTG (final concentration of 50 μg/ml) and FC2 were obtained from Sigma-Aldrich (St. Louis, Mo.).

[4] = test system: HT-p21-a cells, HT-p16 cells; test: Preservation of proliferative potential in IPTG-treated HT-p21-a and HT-p16 cells, nutlin-3a versus nutlin-3b; assay type: cell-based, human; settings: IPTG-regulated p16- and p21-expressing cells
Excerpt: FIG. 7. […] Then medium was changed and cells were counted after 8 days. b. […] Then medium was changed and cells were counted after 5 days.
as §2

[5] = test system: mTOR pathway; test: Immunoblot for p53, p-S6, p-S6K in WI-38-tert fibroblasts; assay type: cell-based, human
Protocol: FIG. 4. […] HT-p21-a cells were treated with IPTG and infected with Ad-p53. After 3 days, cells were photographed (original magnification ×200): Upper panel. Under blue light to visualize cells expressing p53 (green cells). Lower panel. Under visible light to visualize all cells. Red arrows indicate cells lacking p53 expression. All of these cells show large, flat cell morphology. Green arrows indicate cells expressing p53. b-d. […] After 1 day, cells were lysed and immunoblot was performed as described in Methods for Example 1. c. […] Cells were then stained for beta-Gal activity and microphotographed. Scale bar—50 μm.d. […] Cells were then trypsinized and counted. […] Results are shown as percent of control.
FIG. 12. […] Immunoblot for p53, p-S6, p-S6K, S6 and actin was performed as described in Methods for Example 1.
Immunoblot analysis. Proteins were separated on 4-15% gradient Tris-HCl gels (Bio-Rad). The following antibodies were used: mouse anti-actin from Santa Cruz Biotechnology, rabbit anti-phospho-S6 (Ser240/244) and (Ser235/236), mouse anti-S6, mouse anti-phospho-p70 S6 kinase (Thr389), mouse anti-p21 and anti-p53, rabbit anti-phospho-4E-BP1 (Thr37/46) from Cell Signaling; mouse anti-4E-BP1 from Invitrogen, mouse anti-p53 (Ab-6) from Calbiochem.

[6] = test system: HT-p21-9 cells; settings: HT-p21-9 cells; Huang et al. 2009; cited from earlier work
[7] = IPTG plus 10 μM nutlin-3a, 24 hr
[8] = 200 μM H2O2 30 min, then 10 μM nutlin-3a, 1 day

SMILES: COc1ccc(C2=N[C@@H](c3ccc(Cl)cc3)[C@@H](c3ccc(Cl)cc3)N2C(=O)N2CCNC(=O)C2)c(OC(C)C)c1 [nutlin-3a]
- cell morphology and SA-beta-Gal staining ([1]; 10 μM nutlin-3a alone, 3 days): remained small, lean and SA-beta-Gal-negative
- senescent morphology caused by IPTG ([1]; IPTG plus compound (10 μM nutlin-3a), 3 days): prevented the senescent morphology caused by IPTG; also recorded: suppressed senescence in IPTG-treated HT-p21-9 cells only
- cytostatic effect of IPTG ([1]; IPTG plus nutlin-3a): did not abrogate the cytostatic effect of IPTG
- cell divisions / arrest in the presence of nutlin-3a alone ([1]; 3 days): underwent one division and did not proliferate further
- cell divisions / arrest in the presence of nutlin-3a alone ([1]; 3 days, listed as Nutlin-3a): arrested after one division with normal cell morphology
- proliferative potential and clonogenicity of IPTG-treated cells ([2]; IPTG plus nutlin-3a 3 days, washed, fresh medium): retained the proliferative potential and clonogenicity
- number of cells per colony ([2]; IPTG+nutlin-3a 3 days, day 9 after drug removal): 200-250
- potency in suppression of senescence (preservation of proliferative potential) ([2]; IPTG-treated HT-p21-9 cells): equally potent
- reversibility of arrest (colony formation upon removal) ([2]; nutlin-3a alone 3 days, then washed): reversible arrest
- further suppression of senescence by nutlin-3a in the presence of rapamycin ([2]; rapamycin (500 nM) at doses that completely inhibit mTOR): could not further suppress senescence
- S6 phosphorylation [3, 7]: inhibited S6 phosphorylation
- phosphorylation of 4E-BP1 [3, 7]: partially inhibited
- cyclin D1 levels ([3]; IPTG plus nutlin-3a): normalized elevated levels of cyclin D1
- mTOR pathway ([3]; presence or absence of IPTG, 18 hr): inhibited the mTOR pathway both in the presence and absence of IPTG
- conversion of senescence into quiescence (preservation of proliferative potential) [4]: preservation of proliferative potential
- S6 phosphorylation in H2O2-treated WI-38-tert cells [5, 8]: inhibited S6 phosphorylation
- p53 level in H2O2-treated WI-38-tert cells [5, 8]: induced p53
- S6K and S6 phosphorylation ([5]; concentrations that induce p53, 24 hr): inhibited S6K and S6 phosphorylation
- cell cycle arrest on induction of p53 by nutlin-3a [6]: reversible cell cycle arrest (quiescence)

From patent US20120283269A1, “Method and Compositions for Suppression of Aging” (HEALTH RESEARCH INC., priority 2009, published 2012)
